# Test results taken from patent US12252524B2, “GIP/GLP1 co-agonist compounds” (Eli Lilly and Company, priority 2018, dated 2025).
# Numbered stars: 1 amine (or outer) side, 2 acyl side, 3 side chain; on linkers, the order of the positions; unused ones are H or OH. Square brackets hold non-standard residues; d marks the D form. Side chains are listed from the residue outwards. Peptide text beside a SMILES is read from it. * marks the point of attachment. C20 diacid = O=C(O)CCCCCCCCCCCCCCCCCCC(=O)*; C18 diacid = O=C(O)CCCCCCCCCCCCCCCCC(=O)*; γGlu = O=C(O)[C@H](CCC(=O)[*:2])N[*:1]; αMeF = C[C@](N)(Cc1ccccc1)C(=O)O; αMeL = CC(C)C[C@](C)(N)C(=O)O; AEEA = NCCOCCOCC(=O)O; Aib = CC(C)(N)C(=O)O
# Test system: CD8+ T cell depleted peripheral blood mononuclear cells
# Method: The purpose of this study is to determine the relative potential for clinical immunogenicity of a compound.
# CD8+ T cell depleted peripheral blood mononuclear cells are prepared and labeled with Carboxyfluorescein Diacetate Succinimidyl Ester (CFSE, Invitrogen) from a cohort of 10 healthy donors. […] Cultures are incubated for 7 days at 37° C. with 5% CO2. On day 7, samples are analyzed by flow cytometry using High Throughput Sampler (HTS). Data is analyzed using FlowJo® Software (FlowJo, LLC, TreeStar).
row,Structure (SMILES),frequency of positive CD+ T cell response (CDI>2.5)
1,CC[C@H](C)[C@H](NC(=O)[C@H](CC(C)C)NC(=O)[C@H](Cc1ccc(O)cc1)NC(=O)[C@H](CCC(=O)O)NC(=O)[C@@H](NC(=O)[C@H](Cc1ccccc1)NC(=O)[C@H](C)NC(=O)C(C)(C)NC(=O)[C@H](CCC(N)=O)NC(=O)[C@H](C)NC(=O)[C@H](CCCCNC(=O)COCCOCCNC(=O)COCCOCCNC(=O)CC[C@H](NC(=O)CCCCCCCCCCCCCCCCCCC(=O)O)C(=O)O)NC(=O)[C@H](CCCCN)NC(=O)[C@H](CC(=O)O)NC(=O)[C@H](CC(C)C)NC(=O)[C@H](CC(C)C)NC(=O)[C@@H](NC(=O)[C@H](CO)NC(=O)[C@H](Cc1ccc(O)cc1)NC(=O)[C@H](CC(=O)O)NC(=O)[C@H](CO)NC(=O)[C@@H](NC(=O)[C@H](Cc1ccccc1)NC(=O)[C@@H](NC(=O)CNC(=O)[C@H](CCC(=O)O)NC(=O)C(C)(C)NC(=O)[C@@H](N)Cc1ccc(O)cc1)[C@@H](C)O)[C@@H](C)O)[C@@H](C)CC)[C@@H](C)CC)C(=O)N[C@@H](C)C(=O)NCC(=O)NCC(=O)N1CCC[C@H]1C(=O)N[C@@H](CO)C(=O)N[C@@H](CO)C(=O)NCC(=O)N[C@@H](C)C(=O)N1CCC[C@H]1C(=O)N1CCC[C@H]1C(=O)N1CCC[C@H]1C(=O)N[C@@H](CO)C(N)=O [Example 288] (H-Y[Aib]EGTFTSDYSILLDKK([AEEA-AEEA-γGlu-C20 diacid])AQ[Aib]AFIEYLIAGGPSSGAPPPS-NH2; N-terminus assumed),low
2,CC[C@H](C)[C@H](NC(=O)[C@H](CC(C)C)NC(=O)[C@H](Cc1ccc(O)cc1)NC(=O)[C@H](CCC(=O)O)NC(=O)[C@@H](NC(=O)[C@H](Cc1ccccc1)NC(=O)[C@H](CCC(=O)O)NC(=O)C(C)(C)NC(=O)[C@H](CCC(N)=O)NC(=O)[C@H](C)NC(=O)[C@H](CCCCNC(=O)COCCOCCNC(=O)COCCOCCNC(=O)CC[C@H](NC(=O)CCCCCCCCCCCCCCCCCCC(=O)O)C(=O)O)NC(=O)[C@H](CCCCN)NC(=O)[C@H](CC(=O)O)NC(=O)[C@H](CC(C)C)NC(=O)[C@](C)(CC(C)C)NC(=O)[C@@H](NC(=O)[C@H](CO)NC(=O)[C@H](Cc1ccc(O)cc1)NC(=O)[C@H](CC(=O)O)NC(=O)[C@H](CO)NC(=O)[C@@H](NC(=O)[C@H](Cc1ccccc1)NC(=O)[C@@H](NC(=O)CNC(=O)[C@H](CCC(=O)O)NC(=O)C(C)(C)NC(=O)[C@@H](N)Cc1ccc(O)cc1)[C@@H](C)O)[C@@H](C)O)[C@@H](C)CC)[C@@H](C)CC)C(=O)N[C@@H](C)C(=O)NCC(=O)NCC(=O)N1CCC[C@H]1C(=O)N[C@@H](CO)C(=O)N[C@@H](CO)C(=O)NCC(=O)N[C@@H](C)C(=O)N1CCC[C@H]1C(=O)N1CCC[C@H]1C(=O)N1CCC[C@H]1C(=O)N[C@@H](CO)C(N)=O [Example 289] (H-Y[Aib]EGTFTSDYSI[αMeL]LDKK([AEEA-AEEA-γGlu-C20 diacid])AQ[Aib]EFIEYLIAGGPSSGAPPPS-NH2),low
3,CC[C@H](C)[C@H](NC(=O)[C@H](CC(C)C)NC(=O)[C@H](Cc1ccc(O)cc1)NC(=O)[C@H](CCC(=O)O)NC(=O)[C@@H](NC(=O)[C@H](Cc1ccccc1)NC(=O)[C@H](C)NC(=O)C(C)(C)NC(=O)[C@H](CCC(N)=O)NC(=O)[C@H](C)NC(=O)[C@H](CCCCNC(=O)COCCOCCNC(=O)COCCOCCNC(=O)CC[C@H](NC(=O)CCCCCCCCCCCCCCCCC(=O)O)C(=O)O)NC(=O)[C@H](CCCCN)NC(=O)[C@H](CC(=O)O)NC(=O)[C@H](CC(C)C)NC(=O)[C@H](CC(C)C)NC(=O)[C@@H](NC(=O)[C@H](CO)NC(=O)[C@H](Cc1ccc(O)cc1)NC(=O)[C@H](CC(=O)O)NC(=O)[C@H](CO)NC(=O)[C@@H](NC(=O)[C@](C)(Cc1ccccc1)NC(=O)[C@@H](NC(=O)CNC(=O)[C@H](CCC(=O)O)NC(=O)C(C)(C)NC(=O)[C@@H](N)Cc1ccc(O)cc1)[C@@H](C)O)[C@@H](C)O)[C@@H](C)CC)[C@@H](C)CC)C(=O)N[C@@H](CCC(=O)O)C(=O)NCC(=O)NCC(=O)N1CCC[C@H]1C(=O)N[C@@H](CO)C(=O)N[C@@H](CO)C(=O)NCC(N)=O [Example 301] (H-Y[Aib]EGT[αMeF]TSDYSILLDKK([AEEA-AEEA-γGlu-C18 diacid])AQ[Aib]AFIEYLIEGGPSSG-NH2),low
